Assay results as given in ChEMBL document CHEMBL2029208 (Bioorg Med Chem, 2012).
Converted amounts (≈) assume the structure as drawn. The source made the active and inactive calls. No cut-off for these calls is given here.

Key:
[1] = test system: Mycobacterium tuberculosis; experiment: microbe, parasite or virus in culture; format: functional; conditions: H37Ra
[2] = target: T1, Bifunctional epoxide hydrolase 2 (Homo sapiens, UniProt P34913);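 note: recombinant enzyme with CMNPC substrate, fluorescence readout of 6-methoxy-2-naphthaldehyde formed over a 10 min reaction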
T1 sequence (P34913 whole entry): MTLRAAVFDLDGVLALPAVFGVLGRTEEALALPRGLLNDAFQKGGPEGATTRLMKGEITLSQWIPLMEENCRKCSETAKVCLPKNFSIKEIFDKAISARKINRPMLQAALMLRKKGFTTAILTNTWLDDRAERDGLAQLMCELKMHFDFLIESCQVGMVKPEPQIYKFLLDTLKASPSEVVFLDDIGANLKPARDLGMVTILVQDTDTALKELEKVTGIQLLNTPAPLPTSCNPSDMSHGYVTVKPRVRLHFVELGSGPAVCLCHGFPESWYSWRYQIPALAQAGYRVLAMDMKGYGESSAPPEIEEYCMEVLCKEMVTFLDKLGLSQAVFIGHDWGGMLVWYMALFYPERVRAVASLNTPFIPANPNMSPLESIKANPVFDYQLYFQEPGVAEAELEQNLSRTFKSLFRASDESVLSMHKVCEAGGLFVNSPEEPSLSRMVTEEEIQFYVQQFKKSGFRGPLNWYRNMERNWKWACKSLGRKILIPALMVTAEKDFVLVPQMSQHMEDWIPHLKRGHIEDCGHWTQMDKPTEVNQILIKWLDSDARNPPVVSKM

[3] = test system: Mycobacterium tuberculosis; experiment: Inhibition of Mycobacterium tuberculosis epoxide hydrolase E expressed in Escherichia coli BL21AI cells using cyano(6-methoxy-2-napthalenyl)methyl[(2,3)-3-phenyloxiranyl] methyl ester carbonate as substrate at 10 nM preincubated for 10 mins before substrate addition measured after 30 mins by spectrofluorometric analysis
[4] = test system: Mycobacterium tuberculosis; experiment: Antimycobacterial activity against Mycobacterium tuberculosis H37Ra at 10 uM; format: functional, organism-based
[5] = test system: Mycobacterium tuberculosis; experiment: Antimycobacterial activity against Mycobacterium tuberculosis H37Ra infected in gamma interferon-knockout mouse assessed as reduction in lung CFU load at 25 mg/kg, po BID dosage beginning at 15 post infection for 9 days (reference value: 8.86 +/- 0.02 log10CFU); format: functional
[6] = test system: Mycobacterium tuberculosis; experiment: Antimycobacterial activity against Mycobacterium tuberculosis H37Ra infected in gamma interferon-knockout mouse assessed as reduction in spleen CFU load at 25 mg/kg, po BID dosage beginning at 15 post infection for 9 days (reference value: 7.30 +/- 0.09 log10CFU); format: functional
[7] = mycobacterium tuberculosis h37ra, cytosol, 5 µM

| SMILES | MIC [1] [µg/mL] | IC50 [2] [nM] | also measured |
| --- | --- | --- | --- |
| O=C(Nc1ccc(OCCN2CCOCC2)c(Cl)c1)NC12CC3CC(CC(C3)C1)C2 | 27 (≈ 62.2 µM) | 0.6 |  |
| O=C(Nc1cccc(OC(F)(F)C(F)F)c1)NC12CC3CC(CC(C3)C1)C2 | 1.4 (≈ 3.62 µM) | 1.5 |  |
| CC(=O)c1cccc(NC(=O)NC23CC4CC(CC(C4)C2)C3)c1 | 3.9 (≈ 12.5 µM) | 1.3 |  |
| O=C(NC1CCCC(C(=O)NN2CCOCC2)C1)NC12CC3CC(CC(C3)C1)C2 (stereo unspecified) | > 84 | 25.8 |  |
| O=C(Nc1ccc(F)c(F)c1F)NC1C2CC3CC(C2)CC1C3 (stereo unspecified) |  |  | inhibition [3]: 68% |
| COc1cc(NC(=O)NC23CC4CC(CC(C4)C2)C3)cc(C(F)(F)F)c1 | 0.58 (≈ 1.57 µM) | 1.7 |  |
| O=C(CCCCCCOCc1ccccc1)NC12CC3CC(CC(C3)C1)C2 | 9.24 (≈ 25 µM) | 66.5 |  |
| Cc1cccc(NC(=O)NC23CC4CC(CC(C4)C2)C3)c1 | 1.1 (≈ 3.87 µM) | 6.1 |  |
| O=C(Nc1ccc(C(F)(F)F)cc1)Nc1ccc(C(F)(F)F)cc1 | 2.18 (≈ 6.26 µM) | 15 |  |
| O=C(Nc1cccc(Oc2ccccc2)c1)NC12CC3CC(CC(C3)C1)C2 | 2.27 (≈ 6.26 µM) | 0.9 |  |
| CCCCCCCCCCCC(=O)NC12CC3CC(CC(C3)C1)C2 | 4.17 (≈ 12.5 µM) | 159 |  |
| COC(=O)CCc1ccc(NC(=O)NC23CC4CC(CC(C4)C2)C3)cc1 | 2.2 (≈ 6.17 µM) | 2 |  |
| CCOCCOCCOCCCCCCNC(=O)NC12CC3CC(CC(C3)C1)C2 | 82 (≈ 200 µM) | 1.2 |  |
| CCOC(=O)COc1ccc(NC(=O)NC23CC4CC(CC(C4)C2)C3)cc1 | 4.7 (≈ 12.6 µM) | 0.8 |  |
| CC(C)OCCOCCOCCCCCNC(=O)NC12CC3CC(CC(C3)C1)C2 | 21 (≈ 51.1 µM) | 4.1 |  |
| O=C(Nc1ccc(OC(F)(F)F)cc1)Nc1ccc(OC(F)(F)F)cc1 | 4.75 (≈ 12.5 µM) | 9.6 |  |

| SMILES | MIC [1] [µg/mL] | IC50 [2] [nM] | also measured |
| --- | --- | --- | --- |
| O=C(Nc1cccc(C(=O)NCCCN2CCOCC2)c1)NC12CC3CC(CC(C3)C1)C2 | > 33 | 57.9 |  |
| O=C(NCCCc1ccccc1)NC12CC3CC(CC(C3)C1)C2 | 0.7 (≈ 2.24 µM) | 1 |  |
| O=C(Nc1ccc(I)cc1)NC12CC3CC(CC(C3)C1)C2 | 0.6 (≈ 1.51 µM) | 0.5 |  |
| COC(=O)c1cccc(O[C@H]2CC[C@@H](NC(=O)NC34CC5CC(CC(C5)C3)C4)CC2)c1 | > 85 | 2.5 | Activity [4]: inactive |
| O=C(NN1CCOCC1)NC12CC3CC(CC(C3)C1)C2 | > 56 | 12800 |  |
| COC(=O)c1ccc(NC(=O)N[C@H]2CC[C@@H](Oc3cc(C(=O)OC)cc(C(=O)OC)c3)CC2)cc1 | 3.03 (≈ 6.25 µM) | 3.8 |  |
| O=C(Nc1ccc(OC(F)(F)F)cc1)NC1CCCCC1 | 0.94 (≈ 3.11 µM) | 0.8 |  |
| NNC(=O)c1ccncc1 [ISONIAZID] | 0.08 (≈ 0.583 µM) |  | log10cfu [5]: 5.41; log10cfu [6]: 3.63 |
| O=C(Nc1ccc(Cl)c(Cl)c1)Nc1ccc(Cl)c(Cl)c1 | 2.19 (≈ 6.26 µM) | 28.1 |  |
| O=C(NC12CC3CC(CC(C3)C1)C2)N[C@H]1CC[C@H](Oc2ccc(C(=O)O)cc2)CC1 | 21 (≈ 50.9 µM) |  | Activity [4]: inactive |
| O=C(Nc1cccc(C(F)(F)F)c1)NC1CCCCC1 | 1.79 (≈ 6.25 µM) | 8.7 |  |
| CCOCCOCCOc1ccc(C(OC(=O)CCCNC(=O)NC23CC4CC(CC(C4)C2)C3)c2ccccc2)cc1 (stereo unspecified) | > 116 | 5.1 |  |
| O=C(Nc1ccc(O)c(Cl)c1)NC12CC3CC(CC(C3)C1)C2 | 2 (≈ 6.23 µM) | 5.1 |  |
| CCCCCO[C@H]1CC[C@H](NC(=O)NC23CC4CC(CC(C4)C2)C3)CC1 | 25 (≈ 69 µM) |  | inhibition [3]: 93%; Drug uptake [7]: 128 ng |
| O=C(NC1CCCC(C(=O)N2CCC(N3CCOCC3)CC2)C1)NC12CC3CC(CC(C3)C1)C2 (stereo unspecified) | > 95 | 6.1 |  |
| O=C(NCCCCCOCCN1CCOCC1)NC12CC3CC(CC(C3)C1)C2 | > 79 | 2.3 |  |
